This is an account of results in patent US7674810B2, “1,1-dioxo-1H-1Λ6-benzo[d]isothiazol-3-yl)-4-hydroxy-1,5-dihydro-pyrrol-2-one inhibitors of HCV polymerase” (Roche Palo Alto LLC, priority 2006, dated 2010).

As usually defined, the melting point is the temperature of the solid-liquid transition. Regarding `O=S1(=O)N=C(c2nc(Cc3ccc(F)cc3)c3ccccc3c2O)c2cccc(N3CCOCC3)c21`, the melting point fell in the range of 259 to 261 °C.

Compound `O=S1(=O)N=C(c2nc(Cc3ccc(F)cc3)c3ccccc3c2O)c2cccc(-c3ccc(F)cc3)c21` showed a melting point of more than 275 °C.

For the compound `Cc1cccc(-c2cccc3c2S(=O)(=O)N=C3c2nc(Cc3ccc(F)cc3)c3ccccc3c2O)c1`, the melting point is 228 to 230 °C.

`O=S1(=O)N=C(c2nc(Cc3ccc(F)cc3)c3ccccc3c2O)c2cccc(-c3cccc(F)c3)c21`: the melting point was more than 275 °C.

`CS(=O)(=O)Nc1cccc(-c2cccc3c2S(=O)(=O)N=C3c2nc(Cc3ccc(F)cc3)c3ccccc3c2O)c1`: the melting point is more than 275 °C.

Regarding `CS(=O)(=O)Nc1cccc2c1S(=O)(=O)N=C2c1nc(Cc2ccc(F)cc2)c2ccccc2c1O`, the melting point is more than 275 °C.

In the case of `CS(=O)(=O)Nc1ccc2c(c1)S(=O)(=O)N=C2c1nc(Cc2ccc(F)cc2)c2ccccc2c1O`, the melting point is more than 275 °C.

`O=S1(=O)N=C(c2nc(Cc3ccc(F)cc3)c3ccc(F)cc3c2O)c2ccccc21`: the melting point is more than 275 °C.

`Cc1ccc2c(Cc3ccc(F)cc3)nc(C3=NS(=O)(=O)c4ccccc43)c(O)c2c1` displayed a melting point of more than 275 °C.

As to `CN(c1ccc(F)cc1)c1nc(C2=NS(=O)(=O)c3ccccc32)c(O)c2ccccc12`, the melting point was in the range of 215 to 217 °C.

`O=S1(=O)N=C(c2nc(NCC3CC3)c3ccccc3c2O)c2ccccc21`: the melting point lay in the range of 270 to 272 °C.

Turning to `O=C1C(C2=NS(=O)(=O)c3ccccc32)=C(O)[C@H](C2CCCCC2)N1Cc1ccccc1`, the melting point was 104 to 106 °C.

In turn, `COc1cc(CN2C(=O)C(C3=NS(=O)(=O)c4ccccc43)=C(O)[C@@H]2C(C)(C)C)ccc1F` displayed a melting point of 92 to 104 °C.

With `Cc1cc(CN2C(=O)C(C3=NS(=O)(=O)c4c(CNS(=O)(=O)N5CCC(N)C5)cccc43)=C(O)[C@@H]2C(C)(C)C)ccc1F.O=C(O)C(F)(F)F` (some centres unmarked), the melting point was 128 to 134 °C.

Consider `CC(=O)NC1CCN(S(=O)(=O)NCc2cccc3c2S(=O)(=O)N=C3C2=C(O)[C@H](C(C)(C)C)N(Cc3ccc(F)c(C)c3)C2=O)C1` (some centres unmarked), for which the melting point fell in the range of 239 to 259 °C.

`Cc1cc(CN2C(=O)C(C3=NS(=O)(=O)c4c(CNS(=O)(=O)N5CCC(S(C)(=O)=O)C5)cccc43)=C(O)[C@@H]2C(C)(C)C)ccc1F` (some centres unmarked) returned a melting point of 124 to 137 °C.

`CC(C)(C)[C@H]1C(O)=C(C2=NS(=O)(=O)c3c(CNS(=O)(=O)c4cccs4)cccc32)C(=O)N1Cc1ccc(F)cc1` returned a melting point of 175 to 192 °C.

For `CC(C)(C)[C@H]1C(O)=C(C2=NS(=O)(=O)c3ccccc32)C(=O)N1Cc1cccs1`, the melting point is 105 to 123 °C.

In turn, `CC[C@H](C)[C@H]1C(O)=C(C2=NS(=O)(=O)c3ccccc32)C(=O)N1Cc1ccc(F)cc1` yielded a melting point of 155 to 160 °C.

Regarding `CC(C)C[C@H]1C(O)=C(C2=NS(=O)(=O)c3ccccc32)C(=O)N1Cc1ccc(F)cc1`, the melting point was 200 °C (dec.).

Regarding `CC(C)CC1C(O)=C(C2=NS(=O)(=O)c3ccccc32)C(=O)N1Cc1ccc(F)cc1` (centres unmarked), the melting point is 200 °C (dec.).

For `CC(C)(C)[C@H]1C(O)=C(C2=NS(=O)(=O)c3ccccc32)C(=O)N1Cc1ccccc1`, the melting point was in the range of 170 to 179 °C.

Compound `CC(C)(C)[C@H]1C(O)=C(C2=NS(=O)(=O)c3ccccc32)C(=O)N1Cc1ccc(F)c(Br)c1` showed a melting point of 114 to 119 °C.

For the compound `CC(C)(C)[C@H]1C(O)=C(C2=NS(=O)(=O)c3ccccc32)C(=O)N1Cc1ccc(F)c(F)c1`, the melting point is 80 to 89 °C.

`CC(C)(C)[C@H]1C(O)=C(C2=NS(=O)(=O)c3ccccc32)C(=O)N1Cc1ccc(F)c(C#N)c1` gave a melting point of 105 to 112 °C.

`CC(C)(C)[C@H]1C(O)=C(C2=NS(=O)(=O)c3ccccc32)C(=O)N1Cc1ccc(F)c(C(F)(F)F)c1` came in with a melting point of 85 to 91 °C.

With `O=C1C(C2=NS(=O)(=O)c3ccccc32)=C(O)[C@H](c2ccccc2)N1Cc1ccc(F)cc1`, the melting point fell in the range of 145 to 155 °C.

Compound `CC(C)(C)[C@H]1C(O)=C(C2=NS(=O)(=O)c3ccccc32)C(=O)N1Cc1ccc(=O)[nH]c1` showed a melting point of 149 to 190 °C.

`CC(C)(C)C1C(O)=C(C2=NS(=O)(=O)c3ccccc32)C(=O)N1Cc1ccc(F)cc1` (centres unmarked) had a melting point of more than 220 °C.

The compound `CC(C)(C)[C@H]1C(O)=C(C2=NS(=O)(=O)c3ccccc32)C(=O)N1Cc1ccc(F)c(C2CC2)c1` registered a melting point of 71 to 85 °C.

`CC(C)(C)[C@H]1C(O)=C(C2=NS(=O)(=O)c3c2cccc3-c2cccnc2)C(=O)N1Cc1ccc(F)cc1` yielded a melting point of more than 275 °C.

In the case of `COc1ccc(-c2cccc3c2S(=O)(=O)N=C3C2=C(O)[C@H](C(C)(C)C)N(Cc3ccc(F)cc3)C2=O)cn1`, the melting point fell in the range of 185 to 190 °C.

For the compound `CC(C)(C)[C@H]1C(O)=C(C2=NS(=O)(=O)c3c2cccc3-c2ccc(=O)[nH]c2)C(=O)N1Cc1ccc(F)cc1`, the melting point was more than 275 °C.

In turn, `CC(=O)Nc1cccc(-c2cccc3c2S(=O)(=O)N=C3C2=C(O)[C@H](C(C)(C)C)N(Cc3ccc(F)cc3)C2=O)c1` displayed a melting point of 255 to 260 °C.

`CN(C)S(=O)(=O)NCc1cccc2c1S(=O)(=O)N=C2C1=C(O)[C@H](C(C)(C)C)N(Cc2ccc(F)cc2)C1=O` showed a melting point of 102 to 115 °C.

With `CC(C)(C)C1C(O)=C(C2=NS(=O)(=O)c3c(Cl)cccc32)C(=O)N1Cc1ccc(F)cc1` (centres unmarked), the melting point was 179 to 213 °C.

On to `CC(C)(C)C1C(O)=C(C2=NS(=O)(=O)c3c(OCC(N)=O)cccc32)C(=O)N1Cc1ccc(F)cc1` (centres unmarked), for which the melting point is more than 250 °C.

Turning to `CC(C)(C)[C@H]1C(O)=C(C2=NS(=O)(=O)c3c(CNS(=O)(=O)N4CCCC4)cccc32)C(=O)N1Cc1ccc(F)cc1`, the melting point lay in the range of 112 to 125 °C.

As for `CC(C)(C)[C@H]1C(O)=C(C2=NS(=O)(=O)c3c2cccc3-c2cncnc2)C(=O)N1Cc1ccc(F)cc1`, the melting point was more than 250 °C.

Compound `CC(C)(C)[C@H]1C(O)=C(C2=NS(=O)(=O)c3c2cccc3-c2cccc(=O)[nH]2)C(=O)N1Cc1ccc(F)cc1` came in with a melting point of more than 250 °C.

`CCc1cc(CN2C(=O)C(C3=NS(=O)(=O)c4ccccc43)=C(O)[C@@H]2C(C)(C)C)ccc1F` returned a melting point of 205 to 210 °C.

For the compound `CC(C)(C)[C@H]1C(O)=C(C2=NS(=O)(=O)c3c(N)cccc32)C(=O)N1Cc1ccc(F)cc1`, the melting point is 155 to 160 °C.

As for `CC(C)(C)[C@H]1C(O)=C(C2=NS(=O)(=O)c3c(CNCC(N)=O)cccc32)C(=O)N1Cc1ccc(F)cc1`, the melting point lay within 118 to 124 °C.

The compound `CNC(=O)CN(Cc1cccc2c1S(=O)(=O)N=C2C1=C(O)[C@H](C(C)(C)C)N(Cc2ccc(F)cc2)C1=O)C(C)=O` had a melting point of 150 to 154 °C.

As to `CN(C)C(=O)COc1cccc2c1S(=O)(=O)N=C2C1=C(O)[C@H](C(C)(C)C)N(Cc2ccc(F)cc2)C1=O`, the melting point is 137 °C.

`CC(C)(C)[C@H]1C(O)=C(C2=NS(=O)(=O)c3ccccc32)C(=O)N1CCC1CC1` displayed a melting point of 135 to 140 °C.

For `CC(C)[C@H]1C(O)=C(C2=NS(=O)(=O)c3ccccc32)C(=O)N1Cc1ccc(F)cc1`, the melting point lay within 95 to 110 °C.

Compound `CC(C)(C)[C@H]1C(O)=C(C2=NS(=O)(=O)c3c(NCC(N)=O)cccc32)C(=O)N1Cc1ccc(F)cc1.N` showed a melting point of more than 250 °C.

`CCOC(=O)CNc1cccc2c1S(=O)(=O)N=C2C1=C(O)[C@H](C(C)(C)C)N(Cc2ccc(F)cc2)C1=O` gave a melting point of 148 to 152 °C.

On to `CC(C)(C)[C@H]1C(O)=C(C2=NS(=O)(=O)c3c(CNS(=O)(=O)N4CC[C@H](O)C4)cccc32)C(=O)N1Cc1ccc(F)cc1`, for which the melting point is more than 250 °C.

Consider `CC(C)(C)[C@H]1C(O)=C(C2=NS(=O)(=O)c3c2ccc2ccccc32)C(=O)N1Cc1ccc(F)cc1`, for which the melting point is 205 °C (dec.).

Regarding `CS(=O)(=O)NCc1cccc2c1S(=O)(=O)N=C2C1=C(O)[C@H](C2CCCCC2)N(Cc2ccc(F)cc2)C1=O`, the melting point fell in the range of 130 to 137 °C.

`CC(C)(C)[C@H]1C(O)=C(C2=NS(=O)(=O)c3c(CNS(C)(=O)=O)cccc32)C(=O)N1CCC1CCCC1` gave a melting point of 74 to 86 °C.

Regarding `Cc1cc(CN2C(=O)C(C3=NS(=O)(=O)c4c(CNS(C)(=O)=O)cccc43)=C(O)C2c2ccc(F)cc2)ccc1F` (centres unmarked), the melting point was more than 250 °C.

In turn, `CNC(=O)NCc1cccc2c1S(=O)(=O)N=C2C1=C(O)[C@H](C(C)(C)C)N(Cc2ccc(F)cc2)C1=O` displayed a melting point of more than 250 °C.

For `CC(C)(C)[C@H]1C(O)=C(C2=NS(=O)(=O)c3c(CCS(C)(=O)=O)cccc32)C(=O)N1Cc1ccc(F)cc1`, the melting point was 127 to 135 °C.

Compound `Cc1cccc2c1S(=O)(=O)N=C2C1=C(O)[C@H](C(C)(C)C)N(Cc2ccc(F)cc2)C1=O` came in with a melting point of more than 250 °C.

For the compound `CC(C)COc1cccc2c1S(=O)(=O)N=C2C1=C(O)[C@H](C(C)(C)C)N(Cc2ccc(F)cc2)C1=O`, the melting point is 99 to 106 °C.

`CC(C)(C)[C@H]1C(O)=C(C2=NS(=O)(=O)c3c(CS(N)(=O)=O)cccc32)C(=O)N1Cc1ccc(F)cc1` gave a melting point of 159 to 173 °C.

`CN(C)S(=O)(=O)N(C)Cc1cccc2c1S(=O)(=O)N=C2C1=C(O)[C@H](C(C)(C)C)N(Cc2ccc(F)cc2)C1=O` showed a melting point of 109 to 115 °C.

Turning to `Cc1ccc(CN2C(=O)C(C3=NS(=O)(=O)c4ccccc43)=C(O)[C@@H]2C(C)(C)C)cc1`, the melting point is 93 to 107 °C.

As to `CC(C)(C)[C@H]1C(O)=C(C2=NS(=O)(=O)c3c(CNS(=O)(=O)N4CCOCC4)cccc32)C(=O)N1Cc1ccc(F)cc1`, the melting point lay within 118 to 129 °C.

For `CC(=O)N1CCN(S(=O)(=O)NCc2cccc3c2S(=O)(=O)N=C3C2=C(O)[C@H](C(C)(C)C)N(Cc3ccc(F)cc3)C2=O)CC1`, the melting point was 248 to 260 °C.

For `Cc1cc(CN2C(=O)C(C3=NS(=O)(=O)c4c(CNS(=O)(=O)N5CCNCC5)cccc43)=C(O)[C@@H]2C(C)(C)C)ccc1F.O=C(O)C(F)(F)F`, the melting point fell in the range of 135 to 151 °C.

The compound `CN(Cc1cccc2c1S(=O)(=O)N=C2C1=C(O)[C@H](C(C)(C)C)N(Cc2ccc(F)cc2)C1=O)S(=O)(=O)N1CCNCC1.O=C(O)C(F)(F)F` showed a melting point of 113 to 128 °C.
